Test results from US5286729A, “Angiotensin II receptor blocking 2,3,6 substituted quinazolinones” (American Cyanamid Company, priority 1993, dated 1994).

Molecular target: T1, Angiotensin II Receptor (Bos taurus, UniProt P25104)
T1 construct: The brownish tissue forming the adrenal cortex is scraped off and finely minced with scissors before homogenization; from tissue; host or cells: beef adrenal cortex, microsomal (100,000 x g) membranes; adrenals from a local slaughter house (Maxwell-Cohen)
T1 sequence (P25104 1-359): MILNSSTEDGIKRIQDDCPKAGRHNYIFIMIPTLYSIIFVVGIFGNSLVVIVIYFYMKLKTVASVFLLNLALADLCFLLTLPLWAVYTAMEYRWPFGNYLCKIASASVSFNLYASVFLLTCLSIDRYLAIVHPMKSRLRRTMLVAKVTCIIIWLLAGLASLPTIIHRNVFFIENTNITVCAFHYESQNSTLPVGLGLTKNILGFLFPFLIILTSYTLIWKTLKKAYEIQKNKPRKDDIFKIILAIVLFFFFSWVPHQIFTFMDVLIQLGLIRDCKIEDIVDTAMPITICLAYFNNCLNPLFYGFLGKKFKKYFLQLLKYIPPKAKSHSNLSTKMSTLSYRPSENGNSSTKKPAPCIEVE
Test: Receptor Binding Assay, binding of [125I](Sar1,Ile8)AngII to beef adrenal cortex membranes
Settings: radioligand; non-specific binding with 1.0 uM unlabeled (Sar1,Ile8)AngII
Description: Beef adrenals are obtained from a local slaughter house (Maxwell-Cohen). [^125 I](Sar^1,Ile^8)AngII, S.A. 2200 Ci/mmole, is purchased from Dupont (NEN®, Boston, Mass.).
Approximately sixteen (16) to twenty (20) beef adrenal glands are processed as follows: fresh adrenal glands received on crushed ice are cleaned of fatty tissues and the tough membranes encapsulating the glands are removed and discarded. The brownish tissue forming the adrenal cortex is scraped off and finely minced with scissors before homogenization. Care is taken to avoid contamination with medullary tissue during dissection. The scraped cortices are suspended in twenty volumes of an ice-cold buffer medium consisting of 10 mM Tris.HCl (pH 7.4 at 22° C.) and containing 1.0 mM EDTA and 0.2M sucrose. Unless otherwise indicated, all subsequent operations are done at 4° C. […] The homogenate is centrifuged first at low speed (3,000×g) for 10 min. […] The pelleted membrane is reconstituted in 50.0 mM Tris.HCl buffer containing 0.1 mM of phenylmethylsulfonyl fluoride (PMSF) to give approximately a protein concentration of 2.5 mg per ml of tissue suspension. The membrane preparation is finally aliquoted in 1.0 ml volumes and stored at -70° C. until use in the binding assays. […]

Specific binding: greater than 90%
Substance: [^125 I](Sar^1, Ile^8) AngII [reference compound]
